According to US20240270762A1, “PENICILLIN-BINDING PROTEIN INHIBITORS” (priority 2021, published 2024):
In brackets after ≈: the same amount, converted by molar mass.

Tests used:
N. gonorrhoeae WHO Z = assay: Liquid broth MIC in Fastidious broth; conditions: Neisseria gonorrhoeae, read-out: Minimum Inhibitory Concentration (MIC), N. gonorrhoeae WHO Z
N. gonorrhoeae CDC-0197 = assay: Liquid broth MIC in Fastidious broth; conditions: Neisseria gonorrhoeae, CDC0197, read-out: Minimum Inhibitory Concentration (MIC), N. gonorrhoeae CDC-0197
[1] = molecular target: T1, PBP2 from Neisseria gonorrhoeae (FA19) (Neisseria gonorrhoeae, UniProt P08149); assay: Bocillin-FL fluorescence polarization competition binding, N. gonorrhoeae PBP2; conditions: fluorescence polarization competition binding assay using Bocillin-FL, read-out: N. gonorrhoeae PBP2 Potency
T1 construct: made in house
T1 sequence (P08149 whole entry): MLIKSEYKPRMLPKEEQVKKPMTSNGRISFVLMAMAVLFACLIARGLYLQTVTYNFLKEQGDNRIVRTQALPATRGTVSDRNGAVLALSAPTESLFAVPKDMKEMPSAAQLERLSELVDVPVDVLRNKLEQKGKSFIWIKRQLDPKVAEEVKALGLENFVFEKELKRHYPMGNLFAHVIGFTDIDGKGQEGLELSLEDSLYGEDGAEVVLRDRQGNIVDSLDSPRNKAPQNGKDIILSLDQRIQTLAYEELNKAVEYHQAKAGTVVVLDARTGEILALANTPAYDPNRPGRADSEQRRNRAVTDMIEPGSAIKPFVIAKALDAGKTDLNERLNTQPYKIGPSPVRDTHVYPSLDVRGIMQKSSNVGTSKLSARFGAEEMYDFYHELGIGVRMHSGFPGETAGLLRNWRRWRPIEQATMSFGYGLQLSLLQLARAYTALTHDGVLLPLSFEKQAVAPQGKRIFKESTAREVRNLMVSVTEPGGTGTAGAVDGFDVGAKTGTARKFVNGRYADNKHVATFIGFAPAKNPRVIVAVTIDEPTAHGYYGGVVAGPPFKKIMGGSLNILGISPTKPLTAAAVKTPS
Procedure, shortened: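 Fluorescence polarization competition with 0.1 μM Bocillin-FL (fluorescent penicillin V) against 0.25 μM N. gonorrhoeae FA19 PBP2 in 50 mM Hepes pH 8.0, 300 mM NaCl, 10% glycerol. Boronic acid inhibitors were preincubated with PBP, then Bocillin-FL was added and FP read (490/520 nm) up to 60 min. EC50 is the concentration halving PBP-bound Bocillin-FL.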

N. gonorrhoeae WHO Q = assay: Liquid broth MIC in Fastidious broth; conditions: Neisseria gonorrhoeae, read-out: Minimum Inhibitory Concentration (MIC), N. gonorrhoeae WHO Q
N. gonorrhoeae FA1090 = assay: Liquid broth MIC in Fastidious broth; conditions: Neisseria gonorrhoeae, FA1090, read-out: Minimum Inhibitory Concentration (MIC), N. gonorrhoeae FA 1090
Protocol: Additional antibacterial testing of the series was performed in 8 reference strains of N. gonorrhoeae (ATCC 49226, FA1090, MS 11, WHO G, WHO L, WHO M, WHO K, WHO X, WHO Z, WHO Q, CDC-0197). ATCC 49226, FA1090, MS11, WHO G, WHO L, and WHO M produce wild type or wild-type like PBP2. WHO K, WHO X, WHO Z, WHO Q, and CDC-0197 produce mosaic PBP2. Liquid broth-based assays were used for antibacterial testing of PBP inhibitors in Neisseria gonorrhoeae. Briefly, cryo-preserved bacterial cultures of clinical strains were streaked for isolation on Chocolate Agar (72 g/L (2×) GC Agar Base (BD #228950) and 2% (2×) Hemoglobin was autoclaved at 121° C. for 20 minutes to sterilize. Once cooled to ˜50° C. the 2×GC Agar Base and 2× Hemoglobin solutions are combined and 1% IsoVitaleX Enrichment (BD #211876) was added to the solution). Strains were incubated at 36° C. and 5% CO2 to allow growth of colonies, 24 hours before inoculum preparation. 2-fold serial dilutions of test compounds were conducted in a 96 well plate with a final volume of 75 μL per well at 2-fold the final desired concentration in Fastidious broth (Remel #R07664). For preparation of assay inoculum, a direct suspension was prepared by aseptically swabbing 10-15 colonies from agar plates into culture tubes containing 2 mL of fresh sterile saline. After the dilution plates were set up, direct suspensions were then diluted in a cuvette containing sterile saline and the optical density was measured at 600 nm. Inocula were diluted such that 75 μL of this culture in Fastidious broth results in a starting bacterial concentration of 5×10^5 CFU/mL when added to the dilution plates. The plates were incubated for ˜24 hours at 36° C. and 5% CO2.

A. baumannii ATCC 19606 = assay: microbe, parasite or virus in culture; type: cell-based; conditions: Acinetobacter baumannii, ATCC19606, read-out: MIC, A. baumannii ATCC 19606
N. gonorrhoeae WHO K = assay: Liquid broth MIC in Fastidious broth; conditions: Neisseria gonorrhoeae, read-out: Minimum Inhibitory Concentration (MIC), N. gonorrhoeae WHO K
P. aeruginosa ATCC 27853 = assay: microbe, parasite or virus in culture; type: cell-based; conditions: Pseudomonas aeruginosa, ATCC27853, read-out: MIC P. aeruginosa ATCC 27853

Row | SMILES | MIC (N. gonorrhoeae WHO Z) [µg/mL] | MIC (N. gonorrhoeae CDC-0197) [µg/mL] | EC50 [1] [µM] | MIC (N. gonorrhoeae WHO Q) [µg/mL] | MIC (N. gonorrhoeae FA1090) [µg/mL] | MIC (A. baumannii ATCC 19606) [µg/mL] | MIC (N. gonorrhoeae WHO K) [µg/mL] | MIC (P. aeruginosa ATCC 27853) [µg/mL]
1 | CS(=O)(=O)N1CCC[C@H]1C(=O)N[C@H](C(=O)N[C@H]1Cc2cccc(C(=O)O)c2OB1O)c1ccc(P(=O)(O)O)cc1 [Example 43, (R)-2-hydroxy-3-((S)-2-((S)-1-(methylsulfonyl)pyrrolidine-2-carboxamido)-2-(4-phosphonophenyl)acetamido)-3,4-dihydro-2H-benzo[e][1,2]oxaborinine-8-carboxylic acid] | 4 to 8 (≈ 6.72 to 13.4 µM) | 1 to 2 (≈ 1.68 to 3.36 µM) | 50 to 250 | 4 to 8 (≈ 6.72 to 13.4 µM) | 1 to 2 (≈ 1.68 to 3.36 µM) | > 128 | 16 to 32 (≈ 26.9 to 53.8 µM) | > 128
2 | O=C(O)c1cccc2c1OB(O)[C@@H](NC(=O)[C@H](NC(=O)N1CCCCC1=O)c1ccc(P(=O)(O)O)cc1)C2 [Example 37, (R)-2-hydroxy-3-((R)-2-(2-oxopiperidine-1-carboxamido)-2-(4-phosphonophenyl)acetamido)-3,4-dihydro-2H-benzo[e][1,2]oxaborinine-8-carboxylic acid] | 1 to 2 (≈ 1.83 to 3.67 µM) | 1 to 2 (≈ 1.83 to 3.67 µM) | < 10 | 1 to 2 (≈ 1.83 to 3.67 µM) | < 1 | > 128 | 4 to 8 (≈ 7.34 to 14.7 µM) | > 128
3 | CS(=O)(=O)N1CCN(C(=O)N[C@@H](C(=O)N[C@H]2Cc3cccc(C(=O)O)c3OB2O)c2ccc(P(=O)(O)O)c(F)c2F)C1=O (single isomer, unassigned) [Example 13] | < 1 | < 1 | < 10 | < 1 | < 1 | 32 to 64 (≈ 49.5 to 99 µM) | < 1 | > 128
4 | O=C(O)c1cccc2c1OB(O)[C@@H](NC(=O)C(NC(=O)C1CCCCC1)c1ccc(P(=O)(O)O)cc1)C2 (stereo partly drawn) [Example 31, (3R)-3-(2-(cyclohexanecarboxamido)-2-(4-phosphonophenyl)acetamido)-2-hydroxy-3,4-dihydro-2H-benzo[e][1,2]oxaborinine-8-carboxylic acid] | 16 to 32 (≈ 30.2 to 60.3 µM) | 16 to 32 (≈ 30.2 to 60.3 µM) | < 10 | 16 to 32 (≈ 30.2 to 60.3 µM) | 4 to 8 (≈ 7.54 to 15.1 µM) | > 128 | 16 to 32 (≈ 30.2 to 60.3 µM) | > 128
5 | CS(=O)(=O)N1CCC[C@@H]1C(=O)N[C@H](C(=O)N[C@H]1Cc2cccc(C(=O)O)c2OB1O)c1ccc(P(=O)(O)O)cc1 [Example 34, (R)-2-hydroxy-3-((S)-2-((R)-1-(methylsulfonyl)pyrrolidine-2-carboxamido)-2-(4-phosphonophenyl)acetamido)-3,4-dihydro-2H-benzo[e][1,2]oxaborinine-8-carboxylic acid] | 16 to 32 (≈ 26.9 to 53.8 µM) | 16 to 32 (≈ 26.9 to 53.8 µM) | 50 to 250 | 16 to 32 (≈ 26.9 to 53.8 µM) | 4 to 8 (≈ 6.72 to 13.4 µM) | > 128 | 16 to 32 (≈ 26.9 to 53.8 µM) | > 128
6 | CS(=O)(=O)N1CCN(C(=O)NC(C(=O)N[C@H]2Cc3cccc(C(=O)O)c3OB2O)c2ccc(P(=O)(O)O)c(O)c2)C1=O (stereo partly drawn) [Example 17, (3R)-2-hydroxy-3-(2-(3-hydroxy-4-phosphonophenyl)-2-(3-(methylsulfonyl)-2-oxoimidazolidine-1-carboxamido)acetamido)-3,4-dihydro-2H-benzo[e][1,2]oxaborinine-8-carboxylic acid] | < 1 | < 1 | < 10 | < 1 | < 1 | 2 to 4 (≈ 3.19 to 6.39 µM) | < 1 | 32 to 64 (≈ 51.1 to 102 µM)
7 | O=C(O)c1c(F)ccc2c1OB(O)[C@@H](NC(=O)C(NC(=O)N1CCN(Cc3ccc(O)c(O)c3Cl)C(=O)C1=O)c1ccc(P(=O)(O)O)cc1)C2 (stereo partly drawn) [Example 8, (3R)-3-(2-(4-(2-chloro-3,4-dihydroxybenzyl)-2,3-dioxopiperazine-1-carboxamido)-2-(4-phosphonophenyl)acetamido)-7-fluoro-2-hydroxy-3,4-dihydro-2H-benzo[e][1,2]oxaborinine-8-carboxylic acid] | < 1 | 1 to 2 (≈ 1.36 to 2.72 µM) | < 10 | < 1 | < 1 | < 1 | 1 to 2 (≈ 1.36 to 2.72 µM) | < 1
8 | CS(=O)(=O)N1CCN(C(=O)NC(C(=O)N[C@H]2Cc3cccc(C(=O)O)c3OB2O)c2ccc(P(=O)(O)O)c(Cl)c2)C1=O (stereo partly drawn) [Example 11, (3R)-3-(2-(3-chloro-4-phosphonophenyl)-2-(3-(methylsulfonyl)-2-oxoimidazolidine-1-carboxamido)acetamido)-2-hydroxy-3,4-dihydro-2H-benzo[e][1,2]oxaborinine-8-carboxylic acid] | < 1 | < 1 | < 10 | < 1 | < 1 | > 128 | < 1 | > 128
9 | NC(=O)c1ccc(C(=O)NC(C(=O)N[C@H]2Cc3cccc(C(=O)O)c3OB2O)c2ccc(P(=O)(O)O)cc2)nc1 (stereo partly drawn) [Example 188, (3R)-3-(2-(5-carbamoylpicolinamido)-2-(4-phosphonophenyl)acetamido)-2-hydroxy-3,4-dihydro-2H-benzo[e][1,2]oxaborinine-8-carboxylic acid] | 1 to 2 (≈ 1.76 to 3.52 µM) | 1 to 2 (≈ 1.76 to 3.52 µM) | < 10 | 1 to 2 (≈ 1.76 to 3.52 µM) | < 1 | > 128 | 1 to 2 (≈ 1.76 to 3.52 µM) | > 128
